Reference: ChEMBL document CHEMBL5338746, “New Generation of sGC Stimulators: Discovery of Imidazo[1,2-a]pyridine Carboxamide BAY 1165747 (BAY-747), a Long-Acting Soluble Guanylate Cyclase Stimulator for the Treatment of Resistant Hypertension” (J Med Chem, 2023)
pIC50: −log10 of the molar value. Values belong to the molecule of their own block, whether it stands above or below them. Active and inactive are the calls of the source. The rule behind the calls is not given here.

Assays:
[1] = Metabolic stability in rat hepatocytes assessed as clearance measured upto 90 mins by LC-MS/MS analysis; type: ADME, cell-based, Hepatocyte
[2] = biological target: T1, Soluble guanylate cyclase alpha1/beta1 complex (Rattus norvegicus) (UniProt P19686+P20595); assay: Stimulation of recombinant rat sGC alpha1/beta1 expressed in CHO cells assessed as formation of cGMP from GTP by measuring concentration for >3-fold increase in the basal luminescence value by luminescence based analysis; type: cell-based; conditions: filed as activator
[3] = biological target: T1, Soluble guanylate cyclase alpha1/beta1 complex (Rattus norvegicus); assay: Stimulation of recombinant rat sGC alpha1/beta1 expressed in CHO cells assessed as formation of cGMP from GTP in presence of NO donor SNAP by measuring basal luminescence value by luminescence based analysis; type: cell-based; conditions: filed as activator, dose 300.0 nM
CHO = assay: Stimulation of recombinant rat sGC alpha1/beta1 expressed in CHO cells assessed as formation of cGMP from GTP in presence of […] ODQ by measuring basal luminescence value by luminescence based analysis; type: cell-based; conditions: dose 300.0 nM, time 3.0 hrs
Aorta = assay: Vasorelaxant activity in New Zealand White rabbits aortic rings assessed as reduction in phenylephrine-induced contraction measured after 30 mins; type: functional, tissue-based; conditions: Oryctolagus cuniculus, 0.5 h
Rattus norvegicus [4] = assay: Antihypertensive activity in spontaneous hypertensive Wistar rat model assessed as reduction in blood pressure at 0.3 mg/kg, po measured after 24 hrs by radiotelemetry analysis; type: functional, organism-based
Rattus norvegicus [5] = assay: Antihypertensive activity in spontaneous hypertensive Wistar rat model assessed as reduction in blood pressure at 1 mg/kg, po measured after 24 hrs by radiotelemetry analysis; type: functional, organism-based
Rattus norvegicus [6] = assay: Antihypertensive activity in spontaneous hypertensive Wistar rat model assessed as reduction in blood pressure po administered bolus injection by radiotelemetry analysis; type: functional, organism-based; conditions: dose 0.3 mg/kg
Rattus norvegicus [7] = assay: Antihypertensive activity in spontaneous hypertensive Wistar rat model assessed as reduction in blood pressure at 0.3 to 3.0 mg/kg, po measured after 2 hrs by radiotelemetry analysis; type: functional; set-up: scale not given: the % may be the effect or the level left; conditions: dose 0.3-3 mg/kg
Rattus norvegicus [8] = assay: Antihypertensive activity in spontaneous hypertensive Wistar rat assessed as decrease in systolic blood pressure at 0.3 mg/kg, iv administered as bolus injection measured for 21 days by tail-cuff method (reference value: -12 mmHg); type: functional; conditions: time 21 day
Rattus norvegicus [9] = assay: Anti-hypertensive activity against L-NAME treated renin transgenic Wistar rat cardiovascular disease model assessed as change in heart to body weight at 0.3 mg/kg administered once daily via oral gavage upto 21 days (reference value: 4.64+/-0.3 g/Kg); type: functional; conditions: time <= 21 day
Rattus norvegicus [10] = assay: Anti-hypertensive activity against L-NAME treated renin transgenic Wistar rat cardiovascular disease model assessed as increase in survival at 0.3 mg/kg administered once daily via oral gavage upto 21 days (reference value: 21%); type: functional; conditions: time <= 21 day
Rattus norvegicus [11] = assay: Antihypertensive activity against L-NAME treated renin transgenic Wistar rat cardiovascular disease model assessed as reduction in blood pressure at 0.3 mg/kg administered via oral gavage once daily for 28 days; type: functional, organism-based; conditions: time 28.0 day
Rattus norvegicus [12] = assay: Antihypertensive activity in spontaneous hypertensive Wistar rat assessed as decrease in systolic blood pressure at 0.1 mg/kg, iv administered as bolus injection measured for 21 days by tail-cuff method (reference value: -12 mmHg); type: functional; conditions: time 21 day
Rattus norvegicus [13] = assay: Antihypertensive activity in spontaneous hypertensive Wistar rat assessed as decrease in systolic blood pressure iv administered as bolus injection measured for 21 days by tail-cuff method; type: functional, organism-based; conditions: dose 0.3-3 mg/kg, time 21.0 day
Rattus norvegicus [14] = assay: Anti-hypertensive activity against L-NAME treated renin transgenic Wistar rat cardiovascular disease model assessed as reduction in plasma BNP level at 3 mg/kg administered once daily via oral gavage upto 21 days (reference value: 403+/-325 pg/ml); type: functional; conditions: time <= 21 day
Rattus norvegicus [15] = assay: Antihypertensive activity against L-NAME treated renin transgenic Wistar rat cardiovascular disease model assessed as reduction in blood pressure at 3 mg/kg administered via oral gavage once daily for 28 days; type: functional, organism-based; conditions: time 28.0 day
Rattus norvegicus [16] = assay: Anti-hypertensive activity against L-NAME treated renin transgenic Wistar rat cardiovascular disease model assessed as change in kidney to body weight at 3 mg/kg administered once daily via oral gavage upto 21 days (reference value: 3.79 +/- 0.1 g/kg); type: functional; conditions: time <= 21 day
Rattus norvegicus [17] = assay: Anti-hypertensive activity against L-NAME treated renin transgenic Wistar rat cardiovascular disease model assessed as change in kidney to body weight at 0.3 mg/kg administered once daily via oral gavage upto 21 days (reference value: 3.79 +/- 0.1 g/kg); type: functional; conditions: time <= 21 day
Rattus norvegicus [18] = assay: Antihypertensive activity against L-NAME treated renin transgenic Wistar rat cardiovascular disease model assessed as body weight gain at 3 mg/kg administered via oral gavage once daily for 21 days; type: functional, organism-based; conditions: time 21.0 day
Rattus norvegicus [19] = assay: Antihypertensive activity against L-NAME treated renin transgenic Wistar rat cardiovascular disease model assessed as body weight gain at 0.3 mg/kg administered via oral gavage once daily for 21 days; type: functional, organism-based; conditions: time 21.0 day
Rattus norvegicus [20] = assay: Antihypertensive activity in spontaneous hypertensive Wistar rat assessed as decrease in systolic blood pressure at 0.003 mg/kg, iv administered as bolus injection measured for 21 days by tail-cuff method (reference value: -12 mmHg); type: functional; conditions: time 21 day
Rattus norvegicus [21] = assay: Anti-hypertensive activity against L-NAME treated renin transgenic Wistar rat cardiovascular disease model assessed as increase in plasma cGMP level at 3 mg/kg administered once daily via oral gavage upto 21 days (reference value: 572+/-350 pmol/mL); type: functional; conditions: time <= 21 day
Rattus norvegicus [22] = assay: Anti-hypertensive activity against L-NAME treated renin transgenic Wistar rat cardiovascular disease model assessed as reduction in plasma BNP level at 0.3 mg/kg administered once daily via oral gavage upto 21 days (reference value: 403+/-325 pg/ml); type: functional; conditions: time <= 21 day
Rattus norvegicus [23] = assay: Anti-hypertensive activity against L-NAME treated renin transgenic Wistar rat cardiovascular disease model assessed as increase in plasma cGMP level at 0.3 mg/kg administered once daily via oral gavage upto 21 days (reference value: 572+/-350 pmol/mL); type: functional; conditions: time <= 21 day
Rattus norvegicus [24] = assay: Anti-hypertensive activity against L-NAME treated renin transgenic Wistar rat cardiovascular disease model assessed as increase in survival at 3 mg/kg administered once daily via oral gavage upto 21 days (reference value: 21%); type: functional; conditions: time <= 21 day
Rattus norvegicus [25] = assay: Antihypertensive activity against L-NAME treated renin transgenic Wistar rat cardiovascular disease model assessed as reduction in mortality rate at 3 mg/kg administered via oral gavage once daily for 21 days; type: functional, organism-based; conditions: time 21.0 day
Rattus norvegicus [26] = assay: Anti-hypertensive activity against L-NAME treated renin transgenic Wistar rat cardiovascular disease model assessed as change in heart to body weight at 3 mg/kg administered once daily via oral gavage upto 21 days (reference value: 4.64+/-0.3 g/Kg); type: functional; conditions: time <= 21 day
Rattus norvegicus [27] = assay: Antihypertensive activity in spontaneous hypertensive Wistar rat assessed as decrease in systolic blood pressure at 0.3 mg/kg, iv administered as bolus injection measured for 21 days by tail-cuff method; type: functional; conditions: time 21 day
Rattus norvegicus [28] = assay: Antihypertensive activity against L-NAME treated renin transgenic Wistar rat cardiovascular disease model assessed as reduction in mortality rate at 0.3 mg/kg administered via oral gavage once daily for 21 days; type: functional, organism-based; conditions: time 21.0 day
Rattus norvegicus [29] = assay: Antihypertensive activity in spontaneous hypertensive Wistar rat assessed as decrease in systolic blood pressure at 0.03 mg/kg, iv administered as bolus injection measured for 21 days by tail-cuff method (reference value: -12 mmHg); type: functional; conditions: time 21 day
Rattus norvegicus [30] = assay: Antihypertensive activity in spontaneous hypertensive Wistar rat assessed as decrease in systolic blood pressure at 0.01 mg/kg, iv administered as bolus injection measured for 21 days by tail-cuff method (reference value: -12 mmHg); type: functional; conditions: time 21 day

CLhep predicted [1]: 36.7 mL/min/kg | MEC [2]: 0.3 µM
Structure (SMILES): CCCC[C@H](CO)NC(=O)c1c(C2CC2)nc2c(OCc3c(F)cccc3F)cccn12

CLhep predicted [1]: 43.3 mL/min/kg | MEC [2]: 3 µM
Structure (SMILES): CCCC[C@H](CO)NC(=O)c1c(C)nc2c(OCc3c(C)cccc3C)cccn12

CLhep predicted [1]: 38.3 mL/min/kg | MEC [2]: 1 µM
Structure (SMILES): CCCC[C@H](CO)NC(=O)c1c(C)nc2c(OCc3ccccc3)cccn12

CLhep predicted [1]: 56.7 mL/min/kg | MEC [2]: 0.01 µM
Structure (SMILES): CCCC[C@H](CO)NC(=O)c1c(C)nc2c(OCc3c(F)cccc3F)cc(C)cn12

More lines, now with the values behind:

Structure (SMILES): CCCC[C@H](CO)NC(=O)c1cnc2c(OCc3c(F)cccc3F)cccn12
CLhep predicted [1]: 13.3 mL/min/kg | MEC [2]: 0.3 µM

Structure (SMILES): CCCC[C@H](CO)NC(=O)c1c(C)nc2c(OCc3c(F)cccc3F)cc(Cl)cn12
CLhep predicted [1]: 48.3 mL/min/kg | MEC [2]: 0.01 µM

Structure (SMILES): Cc1nc2c(OCC3CCC3)cccn2c1C(=O)NCc1ccc(Cl)cc1
Drug metabolism [3]: Active | Drug metabolism (CHO): inactive | CLhep predicted [1]: 60 mL/min/kg | MEC [2]: 1 µM | pIC50 (Aorta): 6.08

Structure (SMILES): CC[C@](C)(N)CNC(=O)c1c(C)nc2c(OCc3c(F)cccc3F)cc(C)cn12
Activity (Rattus norvegicus [4]): Active | Activity (Rattus norvegicus [5]): Active | Activity (Rattus norvegicus [6]): Dose-Dependent Effect | Activity (Rattus norvegicus [7]): 10% | Activity (Rattus norvegicus [8]): -86 mmHg | Activity (Rattus norvegicus [9]): 4.03 g/kg | Activity (Rattus norvegicus [10]): 44% | Activity (Rattus norvegicus [11]): inactive | Activity (Rattus norvegicus [12]): -70 mmHg | Activity (Rattus norvegicus [13]): Dose-Dependent Effect | Activity (Rattus norvegicus [14]): 97 pg/mL | Activity (Rattus norvegicus [15]): Active | Activity (Rattus norvegicus [16]): 3.72 g/kg | Activity (Rattus norvegicus [17]): 3.72 g/kg | Activity (Rattus norvegicus [18]): Active | Activity (Rattus norvegicus [19]): Active | Activity (Rattus norvegicus [20]): -19 mmHg | Activity (Rattus norvegicus [21]): 2798 pmol/mL | Activity (Rattus norvegicus [22]): 284 pg/mL | Activity (Rattus norvegicus [23]): 1018 pmol/mL | Activity (Rattus norvegicus [24]): 78% | Activity (Rattus norvegicus [25]): Active | Activity (Rattus norvegicus [26]): 3.64 g/kg | Activity (Rattus norvegicus [27]): -86 mmHg | Activity (Rattus norvegicus [28]): Active | Activity (Rattus norvegicus [29]): -49 mmHg | pIC50 (Aorta): 7.57 | Activity (Rattus norvegicus [30]): -22 mmHg
